Results published in patent US10722501B2 (BAYER AKTIENGESELLSCHAFT, priority 2016, dated 2020).

What follows are molecules tested against T1, recombinant full-length human prolyl endopeptidase (PREP) (Homo sapiens, UniProt P48147) (assay: Biochemical human prolyl endopeptidase (PREP) assay with fluorescently labelled substrate). Conditions: substrate Z-Gly-Pro-AMC 50 μM, 32° C., 60 min; some as mean values from multiple independent determinations.
T1 construct: To recombinant full-length human prolyl endopeptidase (PREP, R&D-Systems, 4308-SE); purchased R&D-Systems 4308-SE
T1 sequence (P48147 1-710): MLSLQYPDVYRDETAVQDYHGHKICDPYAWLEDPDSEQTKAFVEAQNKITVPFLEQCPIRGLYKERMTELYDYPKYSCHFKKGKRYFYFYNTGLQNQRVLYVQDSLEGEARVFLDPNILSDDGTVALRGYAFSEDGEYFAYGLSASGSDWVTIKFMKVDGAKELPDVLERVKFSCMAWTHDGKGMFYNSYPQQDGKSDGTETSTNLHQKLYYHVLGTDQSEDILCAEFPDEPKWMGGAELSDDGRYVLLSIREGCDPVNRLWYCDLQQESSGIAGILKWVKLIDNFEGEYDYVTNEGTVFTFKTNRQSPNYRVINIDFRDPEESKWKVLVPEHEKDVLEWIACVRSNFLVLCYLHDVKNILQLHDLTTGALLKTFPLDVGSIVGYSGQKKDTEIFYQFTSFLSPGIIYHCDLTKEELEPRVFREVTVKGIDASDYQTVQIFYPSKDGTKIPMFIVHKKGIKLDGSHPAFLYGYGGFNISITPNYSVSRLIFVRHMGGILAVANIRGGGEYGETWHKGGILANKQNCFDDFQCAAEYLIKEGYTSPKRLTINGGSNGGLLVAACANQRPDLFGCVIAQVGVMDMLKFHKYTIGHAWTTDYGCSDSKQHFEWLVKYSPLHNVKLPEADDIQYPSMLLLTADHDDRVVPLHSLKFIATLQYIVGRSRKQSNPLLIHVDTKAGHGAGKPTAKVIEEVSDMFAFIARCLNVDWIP
Procedure: B-1 Biochemical Human Prolyl Endopeptidase (PREP) Assay for Identification of Inhibitors of PREP Activity Using a Fluorescently Labelled Substrate Principle of the Assay:
The enzymatic conversion of the fluorescent peptide substrate was observed on the basis of the measurement of the fluorescence intensity. The enzyme activity was determined by the ascertaining of the initial slope in the increase in fluorescence. Compounds that inhibit PREP were identified on the basis of the decrease in the initial slope compared to a reaction mixture without test compound.
Determination of Activity:
IC50 values were determined by the plotting of the percentage PREP activity against the concentration of the test substance by interpolation.
To recombinant full-length human prolyl endopeptidase (PREP, R&D-Systems, 4308-SE; final concentration, for example, 0.4 nM, volume: 25 μl) in reaction buffer (50 mM Tris-HCl, pH 7.5; 150 mM NaCl; 0.13% BSA, 5 mM EDTA, 3 mM GSH, 0.005% Brij-35) was added a test compound (in DMSO, in an appropriate final concentration range from 1 nM to 30 μM, volume: 1 μl) in a well of a 384-well microtitre plate. The reaction was initiated by adding the substrate Z-Gly-Pro-AMC (final concentration 50 μM; Z=carboxybenzyl; AMC=7-amino-4-methylcoumarin, volume: 25 μl). The progress of the PREP reaction was observed by measuring the fluorescence intensity in a Tecan SAFIRE II plate spectrophotometer at 32° C. over a period of 60 min (excitation wavelength: 360 nm, emission wavelength: 465 nm).
Table B-1 below collates the IC50 values thus obtained from the human prolyl endopeptidase assay for individual working examples of the invention (some as mean values from multiple independent individual determinations).

| SMILES | IC50 [nM] |
| --- | --- |
| Cc1ccc(Cn2nc3n(c2=O)C(C(=O)N2CC(O)(C(F)(F)F)C2)CCC3)cc1 (racemic) [Example 131, (5RS)-{[3-Hydroxy-3-(trifluoromethyl)azetidin-1-yl]carbonyl}-2-(4-methylbenzyl)-5,6,7,8-tetrahydro[1,2,4]triazolo[4,3-a]pyridin-3(2H)-one] | 107 |
| Cc1ccc(Cn2nc3n(c2=O)C(C(=O)N2CC(OC(F)F)C2)CCC3)cc1 (racemic) [Example 123, (5RS)-5-{[3-(Difluoromethoxy)azetidin-1-yl]carbonyl}-2-(4-methylbenzyl)-5,6,7,8-tetrahydro[1,2,4]triazolo[4,3-a]pyridin-3(2H)-one] | 12 |
| O=C([C@@H]1CCCc2nn(Cc3ccc(Br)cc3F)c(=O)n21)N1C[C@@H](F)[C@@H](F)C1 [Example 215, (5S)-2-(4-Bromo-2-fluorobenzyl)-5-{[(3R,4S)-3,4-difluoropyrrolidin-1-yl]carbonyl}-5,6,7,8-tetrahydro[1,2,4]triazolo[4,3-a]pyridin-3(2H)-one] | 0.53 |
| O=C(C1C(C(F)(F)F)CCc2nn(Cc3ccnc(C(F)(F)F)c3F)c(=O)n21)N1CC(F)C1 (racemic) [Example 302, (5RS,6RS)-5-[(3-Fluoroazetidin-1-yl)carbonyl]-2-{[3-fluoro-2-(trifluoromethyl)pyridin-4-yl]methyl}-6-(trifluoromethyl)-5,6,7,8-tetrahydro[1,2,4]triazolo[4,3-a]pyridin-3(2H)-one] | 49.5 |
| Cc1ccc(Cn2nc3n(c2=O)C(C(=O)N2CC(F)(F)C2)CCC3)cc1 (single isomer, unassigned) [Example 115, (5RS)-5-[(3,3-Difluoroazetidin-1-yl)carbonyl]-2-(4-methylbenzyl)-5,6,7,8-tetrahydro[1,2,4]triazolo[4,3-a]pyridin-3(2H)-one] | 1.1 |
| Cc1ccc(Cn2nc3n(c2=O)[C@H](C(=O)N2C[C@@H](F)[C@@H](F)C2)CCC3)cc1 [Example 150, (5S)-5-{[cis-3,4-Difluoropyrrolidin-1-yl]carbonyl}-2-(4-methylbenzyl)-5,6,7,8-tetrahydro[1,2,4]triazolo[4,3-a]pyridin-3(2H)-one] | 0.58 |
| O=C([C@@H]1CCCc2nn(Cc3ccc(C(F)(F)F)nc3)c(=O)n21)N1CCC2CC21 (single isomer, unassigned) [Example 201] | 5.45 |
| O=C(C1CC(C(F)(F)F)Cc2nn(Cc3ccc(Cl)nc3)c(=O)n21)N1CC[C@H](F)C1 (mixture of isomers) [Example 242, (5RS,7RS)-2-[(6-Chloropyridin-3-yl)methyl]-5-{[(3S)-3-fluoropyrrolidin-1-yl]carbonyl}-7-(trifluoromethyl)-5,6,7,8-tetrahydro[1,2,4]triazolo[4,3-a]pyridin-3(2H)-one] | 2 |
| O=C(C1CCC(C(F)(F)F)c2nn(Cc3ccc(C(F)(F)F)nc3)c(=O)n21)N1CC[C@H](F)C1 (mixture of isomers) [Example 271, (5RS,8RS)-5-{[(3S)-3-Fluoropyrrolidin-1-yl]carbonyl}-8-(trifluoromethyl)-2-{[6-(trifluoromethyl)pyridin-3-yl]methyl}-5,6,7,8-tetrahydro[1,2,4]triazolo[4,3-a]pyridin-3(2H)-one] | 1.1 |

More lines, now with the values ahead:

| IC50 [nM] | SMILES |
| --- | --- |
| 0.72 | COc1ccc(C2(Cn3nc4n(c3=O)[C@H](C(=O)N3CC[C@H](F)C3)CCC4)CC2)cc1 [Example 528, (5S)-5-{[(3S)-3-Fluoropyrrolidin-1-yl]carbonyl}-2-{[1-(4-methoxyphenyl)cyclopropyl]methyl}-5,6,7,8-tetrahydro[1,2,4]triazolo[4,3-a]pyridin-3(2H)-one] |
| 0.51 | O=C([C@@H]1CCCc2nn(Cc3ccc(Cl)c(F)c3)c(=O)n21)N1CCC(F)(F)C1 [Example 464, (5S)-2-(4-Chloro-3-fluorobenzyl)-5-[(3,3-difluoropyrrolidin-1-yl)carbonyl]-5,6,7,8-tetrahydro[1,2,4]triazolo[4,3-a]pyridin-3(2H)-one] |
| 1 | COc1ncc(Cn2nc3n(c2=O)[C@H](C(=O)N2C[C@@H](F)[C@@H](F)C2)CCC3)cc1Cl [Example 442, (5S)-2-[(5-Chloro-6-methoxypyridin-3-yl)methyl]-5-{[(3R,4S)-3,4-difluoropyrrolidin-1-yl]carbonyl}-5,6,7,8-tetrahydro[1,2,4]triazolo[4,3-a]pyridin-3(2H)-one] |
| 0.94 | O=C([C@@H]1CCCc2nn(Cc3cccc(Cl)n3)c(=O)n21)N1CC[C@H](F)C1 [Example 386, (5S)-2-[(6-Chloropyridin-2-yl)methyl]-5-{[(3S)-3-fluoropyrrolidin-1-yl]carbonyl}-5,6,7,8-tetrahydro[1,2,4]triazolo[4,3-a]pyridin-3(2H)-one] |
| 9.6 | O=C([C@@H]1CCCc2nn(Cc3ccc(F)nc3)c(=O)n21)N1CCC(F)(F)C1 [Example 536, (5S)-5-[(3,3-Difluoropyrrolidin-1-yl)carbonyl]-2-[(6-fluoropyridin-3-yl)methyl]-5,6,7,8-tetrahydro[1,2,4]triazolo[4,3-a]pyridin-3(2H)-one] |
| 1.68 | O=C([C@@H]1CCCc2nn(Cc3cncc(Cl)c3)c(=O)n21)N1CC[C@H](F)C1 [Example 438, (5S)-2-[(5-Chloropyridin-3-yl)methyl]-5-{[(3S)-3-fluoropyrrolidin-1-yl]carbonyl}-5,6,7,8-tetrahydro[1,2,4]triazolo[4,3-a]pyridin-3(2H)-one] |
| 0.41 | O=C([C@@H]1CCCc2nn(Cc3ccc(F)c(F)c3)c(=O)n21)N1CC[C@H](F)C1 [Example 466, (5S)-2-(3,4-Difluorobenzyl)-5-{[(3S)-3-fluoropyrrolidin-1-yl]carbonyl}-5,6,7,8-tetrahydro[1,2,4]triazolo[4,3-a]pyridin-3(2H)-one] |
| 1.9 | O=C([C@@H]1CC=Cc2nn(Cc3ccc(C(F)(F)F)nc3)c(=O)n21)N1C[C@@H](F)[C@@H](F)C1 [Example 558, (5S)-5-{[(3R,4S)-3,4-Difluoropyrrolidin-1-yl]carbonyl}-2-{[6-(trifluoromethyl)pyridin-3-yl]methyl}-5,6-dihydro[1,2,4]triazolo[4,3-a]pyridin-3(2H)-one] |
| 34 | COc1ccc(Cn2nc3n(c2=O)[C@H](C(=O)N2CC(F)(F)C2)CCC3)nc1 [Example 532, (5S)-5-[(3,3-Difluoroazetidin-1-yl)carbonyl]-2-[(5-methoxypyridin-2-yl)methyl]-5,6,7,8-tetrahydro[1,2,4]triazolo[4,3-a]pyridin-3(2H)-one] |
| 575 | O=C([C@@H]1CCCc2nn(Cc3ccc(C(F)(F)F)nc3)c(=O)n21)N1CC(F)C(F)C1 (single isomer, unassigned) [Example 553] |
| 9 | O=C([C@@H]1CCCc2nn(Cc3cccc(C(F)(F)F)n3)c(=O)n21)N1CCC(F)(F)C1 [Example 368, (5S)-5-[(3,3-Difluoropyrrolidin-1-yl)carbonyl]-2-{[6-(trifluoromethyl)pyridin-2-yl]methyl}-5,6,7,8-tetrahydro[1,2,4]triazolo[4,3-a]pyridin-3(2H)-one] |
| 1.35 | CCn1nc(C(F)(F)F)cc1Cn1nc2n(c1=O)[C@H](C(=O)N1CCC(F)(F)C1)CCC2 [Example 362, (5S)-5-[(3,3-Difluoropyrrolidin-1-yl)carbonyl]-2-{[1-ethyl-3-(trifluoromethyl)-1H-pyrazol-5-yl]methyl}-5,6,7,8-tetrahydro[1,2,4]triazolo[4,3-a]pyridin-3(2H)-one] |
| 35 | O=C(C1C(C(F)(F)F)CCc2nn(Cc3ccnc(C(F)(F)F)c3F)c(=O)n21)N1CC(F)C1 (single isomer, unassigned) [Example 303, (5RS,6RS)-5-[(3-Fluoroazetidin-1-yl)carbonyl]-2-{[3-fluoro-2-(trifluoromethyl)pyridin-4-yl]methyl}-6-(trifluoromethyl)-5,6,7,8-tetrahydro[1,2,4]triazolo[4,3-a]pyridin-3(2H)-one] |
